Experimental data from ChEMBL document CHEMBL1159187, “Novel polyamine derivatives as potent competitive inhibitors of Trypanosoma cruzi trypanothione reductase” (Bioorg Med Chem Lett, 1995).
Active and inactive are the calls of the source. No cut-off for these calls is given here.

What was measured:
Trypanothione reductase = Trypanothione reductase (Trypanosoma cruzi, UniProt P28593); assay: Compound was evaluated for the competitive inhibition of trypanothione reduction by recombinant Trypanothione reductase from Trypanosoma cruzi
Chain of Trypanothione reductase (P28593 whole entry): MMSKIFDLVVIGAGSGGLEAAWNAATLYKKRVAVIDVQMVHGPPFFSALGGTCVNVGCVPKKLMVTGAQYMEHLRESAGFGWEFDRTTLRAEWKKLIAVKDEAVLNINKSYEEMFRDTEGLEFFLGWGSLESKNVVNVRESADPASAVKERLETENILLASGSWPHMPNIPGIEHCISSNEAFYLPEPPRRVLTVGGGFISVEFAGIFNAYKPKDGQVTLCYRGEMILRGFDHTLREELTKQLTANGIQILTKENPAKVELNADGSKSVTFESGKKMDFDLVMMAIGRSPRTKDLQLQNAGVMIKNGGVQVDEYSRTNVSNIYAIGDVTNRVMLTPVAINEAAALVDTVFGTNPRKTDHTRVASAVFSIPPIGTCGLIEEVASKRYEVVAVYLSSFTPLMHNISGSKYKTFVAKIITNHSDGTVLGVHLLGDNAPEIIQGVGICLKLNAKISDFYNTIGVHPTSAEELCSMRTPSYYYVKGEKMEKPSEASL

[1] = target: Glutathione reductase (Saccharomyces cerevisiae) (UniProt P41921); assay: Compound was evaluated for the competitive inhibition of glutathione reductase from yeast; No inhibition
Chain of Glutathione reductase (Saccharomyces cerevisiae) (P41921 whole entry, looked up): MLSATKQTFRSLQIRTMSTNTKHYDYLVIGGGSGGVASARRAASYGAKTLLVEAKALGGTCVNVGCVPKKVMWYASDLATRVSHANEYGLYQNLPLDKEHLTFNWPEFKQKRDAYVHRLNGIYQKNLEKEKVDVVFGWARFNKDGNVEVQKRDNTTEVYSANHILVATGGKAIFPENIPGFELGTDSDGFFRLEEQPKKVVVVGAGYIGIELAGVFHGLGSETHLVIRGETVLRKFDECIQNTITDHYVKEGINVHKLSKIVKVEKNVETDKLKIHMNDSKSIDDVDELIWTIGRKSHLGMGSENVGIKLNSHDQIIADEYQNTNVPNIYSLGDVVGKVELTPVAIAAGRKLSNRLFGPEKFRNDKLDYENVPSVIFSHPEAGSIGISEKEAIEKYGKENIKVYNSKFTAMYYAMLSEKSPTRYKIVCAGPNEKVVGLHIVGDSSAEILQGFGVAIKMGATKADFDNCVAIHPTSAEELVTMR

| Compound | Ki (Trypanothione reductase) | Activity [1] |
| --- | --- | --- |
| NCCCCN(CCCN)C(=O)OCc1ccccc1 | 280 µM | – |
| O=C(NCCCCNCCCNC(=O)c1ccccc1)c1ccccc1 | > 2000 µM | – |
| NCCCCN(CCCN)Cc1ccc2ccccc2c1 | 108 µM | – |

Now those with a lower Ki (Trypanothione reductase), led by results:

| Ki (Trypanothione reductase) | Activity [1] | Compound |
| --- | --- | --- |
| 3.5 µM | inactive | NCCCN(CCCCN(CCCN)CCCc1ccccc1)CCCc1ccccc1 |
| 5.5 µM | inactive | NCCCN(CCCCN(CCCN)Cc1ccc2ccccc2c1)Cc1ccc2ccccc2c1 |
| 9.5 µM | inactive | c1ccc2cc(CNCCCCNCCCNCc3ccc4ccccc4c3)ccc2c1 |
| 19 µM | – | NCCCN(CCCCN(CCCN)Cc1ccccc1)Cc1ccccc1 |
